The values below come from patent US5935945A, “Methods of treating or preventing cardiac arrhythmia” (Merck & Co., Inc., priority 1997, dated 1999).

The experiment deals with T1, IKr (rapidly activating delayed rectifier K^+ current) (Cavia porcellus, UniProt O08703).
T1 construct: Guinea pig ventricular myocytes were isolated; from tissue; host or cells: isolated guinea pig ventricular myocytes
T1 sequence (O08703 1-1294): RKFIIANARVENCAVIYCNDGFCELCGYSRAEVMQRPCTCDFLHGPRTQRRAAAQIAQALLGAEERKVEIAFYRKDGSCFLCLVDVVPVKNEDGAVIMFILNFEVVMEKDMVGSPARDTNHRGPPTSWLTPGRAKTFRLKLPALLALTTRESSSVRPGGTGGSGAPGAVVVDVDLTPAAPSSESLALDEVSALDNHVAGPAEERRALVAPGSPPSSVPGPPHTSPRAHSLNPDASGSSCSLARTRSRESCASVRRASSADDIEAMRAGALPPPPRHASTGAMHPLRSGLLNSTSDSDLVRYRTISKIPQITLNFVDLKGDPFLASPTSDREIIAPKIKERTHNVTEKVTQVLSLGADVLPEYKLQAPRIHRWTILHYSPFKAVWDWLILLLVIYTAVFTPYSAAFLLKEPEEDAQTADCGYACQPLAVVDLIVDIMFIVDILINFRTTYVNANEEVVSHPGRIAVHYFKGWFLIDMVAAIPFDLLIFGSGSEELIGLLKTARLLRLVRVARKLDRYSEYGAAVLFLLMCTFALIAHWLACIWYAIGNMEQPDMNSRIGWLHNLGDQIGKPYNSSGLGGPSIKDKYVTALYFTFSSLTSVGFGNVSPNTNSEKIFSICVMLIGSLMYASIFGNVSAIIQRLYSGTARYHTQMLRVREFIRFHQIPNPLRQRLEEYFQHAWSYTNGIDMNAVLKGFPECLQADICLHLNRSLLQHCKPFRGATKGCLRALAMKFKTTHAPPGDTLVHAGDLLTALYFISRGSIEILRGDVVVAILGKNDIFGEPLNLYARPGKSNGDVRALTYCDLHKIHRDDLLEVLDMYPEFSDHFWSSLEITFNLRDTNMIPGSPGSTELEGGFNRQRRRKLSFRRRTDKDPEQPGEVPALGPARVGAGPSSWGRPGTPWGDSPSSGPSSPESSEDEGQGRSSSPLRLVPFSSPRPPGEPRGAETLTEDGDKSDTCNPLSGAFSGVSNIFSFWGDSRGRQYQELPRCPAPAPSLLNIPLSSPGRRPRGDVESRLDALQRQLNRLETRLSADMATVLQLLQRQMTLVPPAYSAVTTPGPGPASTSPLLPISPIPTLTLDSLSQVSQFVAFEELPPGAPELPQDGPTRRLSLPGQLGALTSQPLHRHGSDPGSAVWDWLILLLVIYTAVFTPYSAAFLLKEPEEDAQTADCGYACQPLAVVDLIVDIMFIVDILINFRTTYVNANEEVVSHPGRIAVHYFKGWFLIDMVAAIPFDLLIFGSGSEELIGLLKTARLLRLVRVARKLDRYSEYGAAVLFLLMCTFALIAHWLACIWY
The experiment can be described thus: Voltage-clamp measurement of IKr in guinea pig ventricular myocytes. It is filed as cell-based. The following applies: read-out: % Block (Guinea Pig Ventricle) IKr. How it is done:
Guinea pig ventricular myocytes were isolated using a modification of the procedure described by Mitra et al., Am. J. Physiol. 249:H1056-60 (1985). Excised hearts were perfused through the aorta (retrograde fashion) at a rate of 10 ml/min with oxygenated, warmed (37° C.) solutions described below. The heart was initially perfused for 7 minutes with a Tyrode's solution containing, (in mM): 132 NaCl, 4 KCl, 1.2 MgCl2, 10 HEPES, 5 glucose, pH=7.2. The heart was then perfused with the same nominally Ca^2+ -free solution containing 150 units/ml Type II collagenase (Worthington) and 0.5 units/ml Type XIV protease (Sigma) for 8 minutes. This perfusate was followed by a Tyrode's solution containing 0.2 mM CaCl2 (without enzymes) for 5 minutes. The digested ventricles were cut into small pieces and gently shaken until cells were visibly dispersed. The cells were stored at room temperature until use, within 8 hours after isolation.
The suction microelectrode technique described by Giles, W. R. and Shibata, E. F., "Voltage clamp of bull-frog cardiac pacemaker cells: a quantitative analysis of potassium currents", J. Physiol. 368:265-292 (1985) was used to voltage clamp the cells. Microelectrodes were made by using a two stage puller from square bore (1.0 mm o.d.) borosilicate capillary tubing. Pipettes were filled with 0.5 M K gluconate, 25 mM KCl and 5 mM K2 ATP. The electrodes had resistances of 3 to 7 M.OMEGA. when filled with this solution. After establishing whole-cell recording mode, negative pressure was maintained on the pipette using a 1 ml gas-tight syringe attached via air tight tubing to the suction port of the microelectrode holder. This minimized dialysis of the cell with the pipette solution.
To record K^+ currents, the cells were bathed in a Ca^2+ -free Tyrode's solution containing […]. […] To record Ca^2+ currents, the cells were bathed in Tyrode's solution containing 1.8 mM Ca^2+ without nisoldipine. The cell chamber was superfused with solutions at a rate of 1-2 ml/minute, while maintaining the temperature at 35±1° C. A List EPC-7 clamp amplifier was used to voltage clamp the isolated cells. […] (Sanguinetti M. C. and Jurkiewicz, N. K., "Two components of cardiac delayed rectifier K^+ current: Differential sensitivity to block by Class III antiarrhythmic agents", J. Gen Physiol 1990; 96:194-214.) Data was analyzed as % block from control membrane currents.
Nisoldipine was prepared as a 4 mM stock solution in polyethylene glycol 200. […] At the final concentrations used neither polyethylene glycol 200 nor dimethyl sulfoxide had any effect on any of the measured membrane currents.
Selectivity for block of cardiac K^+ channels, IK1, IKr, and IKs was determined as previously described in guinea pig ventricular myocytes (U.S. Pat. No. 5,428,031).

The structures appear in SMILES notation.

With `COc1ccc(-n2nc(Sc3ccc(C)cc3)c(C)c(C#N)c2=O)cc1` [Compound B], the inhibition at 3 µM came out at 4.2%.

Consider `Cc1cc(C)c(CP(=O)(c2ccccc2)c2ccccc2)c(-c2ccc(F)c(C)c2)c1` [Compound C, 2-(Diphenylphosphinylmethyl)-4'-fluoro-3,5,3'-trimethyl-biphenyl], for which the inhibition at 3 µM is 11.1%.

For the compound `COc1ccc(-n2nc(Sc3ccc(Cl)cc3)c(C)c(C#N)c2=O)cc1` [Compound A, 6-(4-Chlorophenylthio)-2-(4-methoxyphenyl)-5-methyl-3-oxo-2,3-dihydropyridazine-4-carbonitrile], the inhibition at 10 µM (@ 10 μM) is 29%.
